# Patent publication US7671066B2, “Derivatives of 1-phenyl-2-pyridynyl alkylene alcohols as phosphodiesterase inhibitors” (Chiesi Farmaceutici S.p.A., priority 2006, dated 2010)
# What was measured:
# [1] = system: LPDE4; test: Inhibition of low affinity LPDE4 (cAMP disappearance); assay type: biochemical; conditions: for IC50: 50% inhibition of cAMP disappearance; for HPDE4/LPDE4: ratio of IC50 values
# Procedure: (§1) In the case of LPDE4, the IC50 is the molar concentration of the test compound producing 50% inhibition of cAMP disappearance, assessed as described in Cortijo J et al Br J Pharmacol 1993, 108: 562-568, while in the case of HPDE4, the IC50 is the molar concentration of the test compound producing 50% inhibition of the binding of [H^3]rolipram, assessed as described in Duplantier A J et al J Med Chem 1996; 39: 120-125.
# (§2) The affinity toward LPDE4 and HPDE4 was assessed as previously described respectively in Cortijo J et al Br J Pharmacol 1993, 108: 562-568 and Duplantier A J et al J Med Chem 1996; 39: 120-125.
# (§3) The concentration of the test compounds ranged between 10^−12 M and 10^−5 M.
# (§4) In the case of LPDE4, the IC50 is the molar concentration of the test compound producing 50% inhibition of cAMP disappearance, while in the case of HPDE4, the IC50 is the molar concentration of the test compound producing 50% inhibition of the binding of [H^3] rolipram.
# [2] = target: HPDE4; test: Competition for high affinity HPDE4 ([H3]rolipram binding); conditions: 50% inhibition of the binding of [H3]rolipram
# Procedure: as §1, §2, §3, §4
# [3] = system: PDE4 enzyme; test: PDE4 inhibitory activity in the cell free assay (cAMP disappearance, U937 cell supernatant); assay type: biochemical, human; conditions: 1.6 μM cAMP, 30 min at 30° C., mean (95% confidence limits)
# Procedure: The U937 human monocytic cell line was used as source of PDE4 enzyme. Cells were cultured, harvested and supernatant fraction prepared essentially as described in Torphy T J et al J. Pharmacol. Exp. Ther. 1992; 263:1195-1205.
# PDE4 activity was determined in cells supernatants by assaying cAMP disappearance from the incubation mixtures. 50 μl of cell supernatant were incubated at 30° C. for 30 minutes in a final volume of 200 μl in the presence of 1.6 μM cAMP with or without the test compound (50 μl).
# The concentration of the test compounds ranged between 10^−12 M and 10^−6 M. Reactions were stopped by heat inactivation (2.5 minutes at 100° C.) and residual cAMP was measured using an electro-chemiluminescence (ECL)-based immunoassay.
# The results, expressed as mean ±95% confidence limits of the molar concentration of the test compound producing 50% inhibition of cAMP disappearance (IC50) are reported in Table 1 of Example 38.
# Percentage of inhibition of PDE4 activity was calculated, assuming cAMP disappearance in the absence of inhibitors as 100% and cAMP disappearance in heat inactivated samples as 0%.
# [4] = system: LPS-induced TNF-α release in peripheral blood mononuclear cells (PBMCs); test: PDE4 inhibitory activity in the PBMCs assay (LPS-induced TNF-α release); assay type: cell-based; conditions: PBMC; human PBMCs, LPS 3 ng/ml, 18 h, TNF-α by ELISA; mean (95% confidence limits)
# Procedure: The assay, which is based on the known inhibitory activity exerted by PDE4 inhibitors on the lipopolyshaccarides (LPS)-induced tumour necrosis factor-alpha (TNF-α) release in peripheral blood mononuclear cells (PBMCs), was performed according to a method previously described (Hatzelmann A et al J. Pharmacol. Exp. Ther. 2001; 297:267-279; Draheim R et al J. Pharmacol. Exp. Ther. 2004; 308:555-563.
# Cryopreserved human PBMCs, (100 μl/well) were incubated in 96-well plates (10^5 cells/well), for 30 min, in the presence or absence (50 microl) of the test compounds whose concentrations ranged from 10^−12 M to 10^−6 M. Subsequently, LPS (3 ng/ml) was added.
# After 18 h incubation at 37° C. in a humidified incubator under an atmosphere of 95% air and 5% CO2, culture medium was collected and TNF-α measured by ELISA.
# The results, expressed as mean ±95% confidence limits of the molar concentration of the test compound producing 50% inhibition of LPS-induced TNF-α release (IC50) are reported in Table 1.
# The effects of the tested compounds were calculated as percentage of inhibition of TNF-α release, assuming LPS-induced TNF-α production in the absence of inhibitor compound as 100% and basal TNF-α production of PBMCs in the absence of LPS as 0%.
# [5] = system: bronchoalveolar lavage neutrophils; test: LPS-induced acute pulmonary inflammation in rats (animal model of COPD), intratracheal administration; assay type: in vivo
# Procedure: The anti-inflammatory activity of a representative compound of the invention, e.g. CHF 5480 was evaluated after intratracheal (i.t.) administration according to the method described in Belvisi M G J Pharmacol Exp Ther 2005, 314: 568-574.
# CHF 5480 was tested by i.t. instillation 24 h and 1 h before exposure to LPS.
# [6] = Pulmonary and plasma levels after intratracheal administration; assay type: in vivo, rats
Compound,IC50 [3] [nM],IC50 [4] [nM],further results
"COc1ccc(C(=O)Cc2c(Cl)cncc2Cl)cc1OC1CCCC1 [CHF 5400, 1-(3-cyclopentyloxy-4-methoxy-phenyl)-2-(3,5-dichloro-pyridin-4-yl)-ethanone, reference compound]",–,–,IC50 [1]: 0.94 nM; HPDE4/LPDE4 [1]: 1.5; IC50 [2]: 0.61 nM
"COc1ccc(C(=O)O/C(=C\c2c(Cl)cncc2Cl)c2ccc(OC)c(OC3CCCC3)c2)cc1OC1CCCC1 [CHF 5408, 3-Cyclopentyloxy-4-methoxy-benzoic acid, (Z)-1-(3-cyclopentyloxy-4-methoxy-phenyl)-2-(3,5-dichloro-pyridin-4-yl)vinyl ester]",1.3,0.9,IC50 [1]: 42.6 nM; HPDE4/LPDE4 [1]: 57.6; IC50 [2]: 0.74 nM
"COc1ccc(/C(=C/c2c(Cl)cncc2Cl)OC(=O)c2ccccc2)cc1OC [CHF 5415, Benzoic acid, (Z)-2-(3,5-dichloro-pyridin-4-yl)-1-(3,4-dimethoxy-phenyl)vinyl ester]",5.7,5.7,–
"COc1ccc(C(=O)O/C(=C\c2c(Cl)cncc2Cl)c2ccc(OC)c(OC)c2)cc1 [CHF 5429, 4-Methoxy-benzoic acid, (Z)-2-(3,5-dichloro-pyridin-4-yl)-1-(3,4-dimethoxy-phenyl)vinyl ester]",1,5.6,–
"COc1ccc(C(=O)O/C(=C\c2c(Cl)cncc2Cl)c2ccc(OC(F)F)c(OCC3CC3)c2)cc1OC [CHF 5472, 3,4-Dimethoxy-benzoic acid, (Z)-1-(3-cyclopropylmethoxy-4-difluoromethoxy-phenyl)-2-(3,5-dichloro-pyridin-4-yl)vinyl ester]",4,5.4,–
"COc1ccc(/C(=C/c2c(Cl)cncc2Cl)OC(=O)[C@@H](C)c2ccc(CC(C)C)cc2)cc1OC [CHF 5480, 2-(S)-(4-Isobutyl-phenyl)-propionic acid, (Z)-2-(3,5-dichloro-pyridin-4-yl)-1-(3,4-dimethoxy-phenyl)vinyl ester]",17.9,26,"inhibition of bronchoalveolar lavage neutrophils ([5]; i.t. instillation 24 h and 1 h before LPS, doses 0.001 to 10 μmoles/kg): significant and dose-dependent inhibition; reduction of neutrophilia (maximal effect) ([5]; i.t., 1 μmole/kg dose): 60%; levels in plasma ([6]; i.t. administration, plasma): no detectable levels; MRT ([6]; rat, other: intratracheal (i.t.) instillation, lung, read-out: mean residence time in the lungs): 15.3 h"
"COc1ccc(/C(=C/c2c(Cl)cncc2Cl)OC(=O)c2ccc([N+](=O)[O-])cc2)cc1OC [CHF 5513, 4-Nitro-benzoic acid, (Z)-2-(3,5-dichloro-pyridin-4-yl)-1-(3,4-dimethoxy-phenyl)vinyl ester]",0.5,8.5,–
"O=C(O/C(=C\c1c(Cl)cncc1Cl)c1ccc(OC(F)F)c(OCC2CC2)c1)c1ccc(OC(F)F)c(OCC2CC2)c1 [CHF 5514, 3-Cyclopropylmethoxy-4-difluoromethoxy-benzoic acid, (Z)-1-(3-cyclopropylmethoxy-4-difluoromethoxy-phenyl)-2-(3,5-dichloro-pyridin-4-yl)vinyl ester]",1.2,12.5,–
"COc1ccc(/C(=C/c2c(Cl)cncc2Cl)OC(=O)c2ccc(NS(C)(=O)=O)cc2)cc1OC [CHF 5526, 4-Methanesulfonylamino-benzoic acid (Z)-2-(3,5-dichloro-pyridin-4-yl)-1-(3,4-dimethoxy-phenyl)vinyl ester]",0.7,3.77,–
"COc1ccc(C(=O)O/C(=C\c2c(Cl)cncc2Cl)c2ccc(OC)c(OC3CCCC3)c2)cc1OCc1ccccc1 [CHF 5528, 3-Benzyloxy-4-methoxy-benzoic acid, (Z)-1-(3-cyclopentyloxy-4-methoxy-phenyl)-2-(3,5-dichloro-pyridin-4-yl)vinyl ester]",7.3,21.8,–
"COc1ccc(/C(=C/c2c(Cl)cncc2Cl)OC(=O)c2ccc(N)cc2)cc1OC [CHF 5530, 4-Amino-benzoic acid, (Z)-2-(3,5-dichloro-pyridin-4-yl)-1-(3,4-dimethoxy-phenyl)vinyl ester]",1.7,5.4,–
"COc1ccc(C(=O)O/C(=C\c2c(Cl)cncc2Cl)c2ccc(OC)c(OC3CCCC3)c2)cc1OC [CHF 5532, 3,4-Dimethoxy-benzoic acid, (Z)-1-(3-cyclopentyloxy-4-methoxy-phenyl)-2-(3,5-dichloro-pyridin-4-yl)vinyl ester]",12.6,2.2,–
"COc1ccc(/C(=C/c2c(Cl)cncc2Cl)OC(=O)c2ccc(NS(=O)(=O)c3ccc(F)cc3)cc2)cc1OC [CHF 5533, 4-(4-Fluoro-benzenesulfonylamino)-benzoic acid, (Z)-2-(3,5-dichloro-pyridin-4-yl)-1-(3,4-dimethoxy-phenyl)vinyl ester]",0.37,3.1,–
"COc1ccc(/C(=C/c2c(Cl)cncc2Cl)OC(=O)c2ccc(NS(=O)(=O)c3ccc(C)cc3)cc2)cc1OC [CHF 5537, 4-(Toluene-4-sulfonylamino)-benzoic acid, (Z)-2-(3,5-dichloro-pyridin-4-yl)-1-(3,4-dimethoxy-phenyl)vinyl ester]",0.35,6.3,–
"COc1ccc(C(=O)O/C(=C\c2c(Cl)cncc2Cl)c2ccc(OC)c(OCC3CC3)c2)cc1OCC1CC1 [CHF 5546, 3-Cyclopropylmethoxy-4-methoxy-benzoic acid, (Z)-1-(3-cyclopropylmethoxy-4-methoxy-phenyl)-2-(3,5-dichloro-pyridin-4-yl)vinyl ester]",–,1,–
"COc1ccc(/C(=C/c2c(Cl)cncc2Cl)OC(=O)c2ccc(OC(F)F)c(OCC3CC3)c2)cc1OC [CHF 5555, 3-Cyclopropylmethoxy-4-difluoromethoxy-benzoic acid, (Z)-2-(3,5-dichloro-pyridin-4-yl)-1-(3,4-dimethoxy-phenyl)vinyl ester]",6.1,2,–
"COc1ccc(/C(=C/c2c(Cl)cncc2Cl)OC(=O)C2(c3ccc(C)cc3)CC2)cc1OC [CHF 5557, 1-p-Tolyl-cyclopropanecarboxylic acid, (Z)-2-(3,5-dichloro-pyridin-4-yl)-1-(3,4-dimethoxy-phenyl)vinyl ester]",13.8,10.1,–
